Source: patent US20260028354A1, “TETRAHYDRONAPHTHALENE DERIVATIVES AS ESTROGEN RECEPTOR DEGRADERS” (REGENT OF THE UNIVERSITY OF MICHIGAN, priority 2022, published 2026)
Like-named read-outs stand apart in the source and are kept apart here.

Experiments:
ER = ER (Homo sapiens (Human), UniProt P03372); experiment: In-cell western blot analysis of ER for "B" compounds; type: cell-based; conditions: 16 hours, read-out: ICW DC50
Procedure: R^T 2h, gentle shaking. Negative control: cells plus secondary antibodies (no primary antibodies); e, wash x 4 with PBS+0.05-0.1% Tween 20, gentel shaking; f, anti-rabbit-680 and anti-mouse-800 (both 1:1000 in LiCor block+0.05% Tween20, R^T 1h, gentle shaking, no light. LI-COR: 0.2% to reduce background; g, wash×4 with PBS+0.05% Tween 20, gental shaking; h, add 100 μL or 25 μL of PBS to each well and read on CLX plate reader. The relative ER percentage in treated cells were obtained by comparing the values of treated wells to those in untreated and DMSO-treated wells as 100%.

[1] = Cell growth assay (WST-8) for "B" compounds; type: cell-based; conditions: T47D, read-out: Cell growth Inhibition in T47D cell line IC50
Outline: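 Cells seeded at 1500/well overnight, then exposed to compounds for 4 days. 10% WST-8 added for 2.5 h at 37 °C and absorbance read at 450 nm. Growth given as absorbance relative to vehicle control, from three repeats.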

Sequence of ER (P03372 whole entry): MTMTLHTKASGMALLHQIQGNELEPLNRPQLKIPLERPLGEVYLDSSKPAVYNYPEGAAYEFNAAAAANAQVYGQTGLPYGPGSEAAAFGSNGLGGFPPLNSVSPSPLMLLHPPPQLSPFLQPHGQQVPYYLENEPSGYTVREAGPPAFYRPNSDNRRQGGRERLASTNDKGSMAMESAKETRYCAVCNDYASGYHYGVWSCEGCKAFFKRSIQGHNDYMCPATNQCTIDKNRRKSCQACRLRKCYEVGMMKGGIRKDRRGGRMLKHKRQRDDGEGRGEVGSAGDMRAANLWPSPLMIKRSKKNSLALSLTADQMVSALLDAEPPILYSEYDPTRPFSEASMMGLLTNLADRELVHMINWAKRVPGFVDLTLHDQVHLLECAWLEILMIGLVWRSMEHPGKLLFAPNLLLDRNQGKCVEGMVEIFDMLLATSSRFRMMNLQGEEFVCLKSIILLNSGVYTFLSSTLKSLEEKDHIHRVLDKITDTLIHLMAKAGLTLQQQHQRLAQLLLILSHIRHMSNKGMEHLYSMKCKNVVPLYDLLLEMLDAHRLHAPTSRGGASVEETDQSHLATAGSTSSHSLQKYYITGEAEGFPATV

SMILES	DC50 (ER) [nM]	IC50 ([1]; T47D cell line) [nM]	IC50 [1] [nM]
O=C1CC[C@H](N2Cc3cc4c(cc3C2=O)OC[C@H](CN2CCC3(CC2)CCN(c2ccc([C@@H]5c6ccc(O)cc6CC[C@@H]5c5ccccc5)cc2)CC3)O4)C(=O)N1 [Compound B391, 3-((S)-2-((9-(4-((1R,2S)-6-hydroxy-2-phenyl-1,2,3,4-tetrahydronaphthalen-1-yl)phenyl)-3,9-diazaspiro[5.5]undecan-3-yl)methyl)-6-oxo-2,3,6,8-tetrahydro-7H-[1,4]dioxino[2,3-f]isoindol-7-yl)piperidine-2,6-dione]	> 100	1 to 10	–
O=C1CC[C@H](N2Cc3c(ccc4c3OCC43CCN(CC4CCC5(C4)CN(c4ccc([C@@H]6c7ccc(O)cc7CC[C@@H]6c6ccccc6)cc4)C5)CC3)C2=O)C(=O)N1 (stereo partly drawn) [Compound B359, 3-(1′-((2-(4-((1R,2S)-6-hydroxy-2-phenyl-1,2,3,4-tetrahydronaphthalen-1-yl)phenyl)-2-azaspiro[3.4]octan-6-yl)methyl)-6-oxo-6,8-dihydro-2H,7H-spiro[furo[2,3-e]isoindole-3,4′-piperidin]-7-yl)piperidine-2,6-dione]	10 to 100	–	1 to 10
O=C1CCC(N2Cc3c(ccc4c3OCC43CCN(CC4CCC5(CN(c6ccc([C@@H]7c8ccc(O)cc8CC[C@@H]7c7ccccc7)cc6)C5)OC4)CC3)C2=O)C(=O)N1 (stereo partly drawn) [Compound B335, 3-(1′-((2-(4-((1R,2S)-6-hydroxy-2-phenyl-1,2,3,4-tetrahydronaphthalen-1-yl)phenyl)-5-oxa-2-azaspiro[3.5]nonan-7-yl)methyl)-6-oxo-6,8-dihydro-2H,7H-spiro[furo[2,3-e]isoindole-3,4′-piperidin]-7-yl)piperidine-2,6-dione]	10 to 100	–	< 1
O=C1CCC(Nc2ccc(C3CCN(CC4COC5(CCN(c6ccc([C@@H]7c8ccc(O)cc8CC[C@@H]7c7ccccc7)cc6)CC5)OC4)CC3)cc2)C(=O)N1 (stereo partly drawn) [Compound B345, 3-((4-(1-((9-(4-((1R,2S)-6-hydroxy-2-phenyl-1,2,3,4-tetrahydronaphthalen-1-yl)phenyl)-1,5-dioxa-9-azaspiro[5.5]undecan-3-yl)methyl)piperidin-4-yl)phenyl)amino)piperidine-2,6-dione]	> 100	1 to 10	–
O=C1CCC(N2Cc3cc4c(cc3C2=O)OC[C@@H]2CN(CC3CC5(CCN(c6ccc([C@@H]7c8ccc(O)cc8CC[C@@H]7c7ccccc7)cc6)C5)C3)CCN42)C(=O)N1 (stereo partly drawn) [Compound B233, 3-((S)-3-((6-(4-((1R,2S)-6-hydroxy-2-phenyl-1,2,3,4-tetrahydronaphthalen-1-yl)phenyl)-6-azaspiro[3.4]octan-2-yl)methyl)-8-oxo-1,2,3,4,4a,5,8,10-octahydro-9H-pyrazino[1′,2′:4,5][1,4]oxazino[2,3-f]isoindol-9-yl)piperidine-2,6-dione]	> 100	1 to 10	–
O=C1CC[C@H](N2Cc3c(ccc4c3OCC43CCN(C[C@H]4CCC5(CCN(c6ccc([C@@H]7c8ccc(O)cc8CC[C@@H]7c7ccccc7)cc6)CC5)OC4)CC3)C2=O)C(=O)N1 [Compound B401, (S)-3-(1′-(((R)-9-(4-((1R,2S)-6-hydroxy-2-phenyl-1,2,3,4-tetrahydronaphthalen-1-yl)phenyl)-1-oxa-9-azaspiro[5.5]undecan-3-yl)methyl)-6-oxo-6,8-dihydro-2H,7H-spiro[furo[2,3-e]isoindole-3,4′-piperidin]-7-yl)piperidine-2,6-dione]	< 10	–	< 1

More lines, main results first:

DC50 (ER) [nM]	SMILES	IC50 ([1]; T47D cell line) [nM]	IC50 [1] [nM]
10 to 100	O=C1CCC(N2Cc3cc4c(cc3C2=O)OC[C@@H]2CN(CC3COC5(CN(c6ccc([C@@H]7c8ccc(O)cc8CC[C@@H]7c7ccccc7)cc6)C5)OC3)CCN42)C(=O)N1 (stereo partly drawn) [Compound B328, 3-((S)-3-((2-(4-((1R,2S)-6-hydroxy-2-phenyl-1,2,3,4-tetrahydronaphthalen-1-yl)phenyl)-5,9-dioxa-2-azaspiro[3.5]nonan-7-yl)methyl)-8-oxo-1,2,3,4,4a,5,8,10-octahydro-9H-pyrazino[1′,2′:4,5][1,4]oxazino[2,3-f]isoindol-9-yl)piperidine-2,6-dione]	1 to 10	–
10 to 100	O=C1CC[C@H](NC(=O)c2ccc3c(n2)OC[C@H]2CN(CC4COC5(CN(c6ccc([C@@H]7c8ccc(O)cc8CC[C@@H]7c7ccccc7)cc6)C5)OC4)CCN32)C(=O)N1 [Compound B347, (R)-N-((S)-2,6-dioxopiperidin-3-yl)-3-((2-(4-((1R,2S)-6-hydroxy-2-phenyl-1,2,3,4-tetrahydronaphthalen-1-yl)phenyl)-5,9-dioxa-2-azaspiro[3.5]nonan-7-yl)methyl)-1,2,3,4,4a,5-hexahydropyrazino[1,2-d]pyrido[2,3-b][1,4]oxazine-8-carboxamide]	< 1	–
10 to 100	O=C1CCC(N2Cc3c(ccc4c3OC[C@H]3CN(C[C@@H]5CCN(c6ccc([C@@H]7c8ccc(O)cc8CC[C@@H]7c7ccccc7)cc6)C5)CCN43)C2=O)C(=O)N1 (stereo partly drawn) [Compound B215, 3-((R)-7-(((S)-1-(4-((1R,2S)-6-hydroxy-2-phenyl-1,2,3,4-tetrahydronaphthalen-1-yl)phenyl)pyrrolidin-3-yl)methyl)-1-oxo-1,3,5,5a,6,7,8,9-octahydro-2H-pyrazino[1′,2′:4,5][1,4]oxazino[2,3-e]isoindol-2-yl)piperidine-2,6-dione]	1 to 10	–
10 to 100	O=C1CCC(N2Cc3cc4c(cc3C2=O)OC[C@@H]2CN(CC3CCC5(CCN(c6ccc([C@@H]7c8ccc(O)cc8CC[C@@H]7c7ccccc7)cc6)CC5)C3)CCN42)C(=O)N1 (stereo partly drawn) [Compound B363, 3-((4aS)-3-((8-(4-((1R,2S)-6-hydroxy-2-phenyl-1,2,3,4-tetrahydronaphthalen-1-yl)phenyl)-8-azaspiro[4.5]decan-2-yl)methyl)-8-oxo-1,2,3,4,4a,5,8,10-octahydro-9H-pyrazino[1′,2′:4,5][1,4]oxazino[2,3-f]isoindol-9-yl)piperidine-2,6-dione]	> 10	–
< 10	O=C1CCC(N2Cc3cc4c(cc3C2=O)OC[C@@H]2CN(CC(=O)N3CC5(CCN(c6ccc([C@@H]7c8ccc(O)cc8CC[C@@H]7c7ccccc7)cc6)C5)C3)CCN42)C(=O)N1 (stereo partly drawn) [Compound B209, 3-((S)-3-(2-(6-(4-((1R,2S)-6-hydroxy-2-phenyl-1,2,3,4-tetrahydronaphthalen-1-yl)phenyl)-2,6-diazaspiro[3.4]octan-2-yl)-2-oxoethyl)-8-oxo-1,2,3,4,4a,5,8,10-octahydro-9H-pyrazino[1′,2′:4,5][1,4]oxazino[2,3-f]isoindol-9-yl)piperidine-2,6-dione]	< 1	–
10 to 100	O=C1CCC(N2Cc3cc4c(cc3C2=O)OC[C@@H]2CN(C(=O)CN3C[C@@H]5CN(c6ccc([C@@H]7c8ccc(O)cc8CC[C@@H]7c7ccccc7)cc6)C[C@@H]5C3)CCN42)C(=O)N1 (stereo partly drawn) [Compound B157, 3-((S)-3-(2-((3aR,6aS)-5-(4-((1R,2S)-6-hydroxy-2-phenyl-1,2,3,4-tetrahydronaphthalen-1-yl)phenyl)hexahydropyrrolo[3,4-c]pyrrol-2(1H)-yl)acetyl)-8-oxo-1,2,3,4,4a,5,8,10-octahydro-9H-pyrazino[1′,2′:4,5][1,4]oxazino[2,3-f]isoindol-9-yl)piperidine-2,6-dione]	< 1	–
